{"source": "patent US7687489B2", "about": "“Agent for treatment of cerebral ischemic diseases” (Ono Pharmaceutical Co., Ltd., priority 2001, dated 2010)", "key": {"[1]": {"tested_on": "thrombin-induced focal cerebral ischemic model", "experiment": "Thrombin-induced focal cerebral ischemic model: survival and neurological symptom score", "assay_type": "in vivo, male Wistar rats", "description": "Twenty male Wistar rats (8-weeks age) were used as one group. The rats were anesthetized with halothane, followed by incision and then subjected to carotid artery shunting. A polyethylene catheter containing thrombin (10 international units) was catheterized into the carotid artery, and […] of blood was sucked and reserved in the catheter for 10 minutes. Then, thrombus formed in the catheter was infused into the carotid artery together with thrombin (J. Cereb. Blood Flow Metab., 17, 123 (1997)).\nThe neurological symptoms of said rats were scored according to the method as described in Brain Res., 452, 323 (1988). The evaluation of score was carried out at 6 hours, 24 hours, 48 hours and 72 hours after infusion of thrombin, and the scores were accumulated. The survival period was determined by monitoring surviving or dead rats at intervals of one hour for the first 72 hours after the infusion of thrombin.\nFrom forty minutes after thrombin infusion, t-PA (Activacin 100,000 international units, product of Kyowa Hakko Kogyo Co., Ltd.) was continuously administered in an amount of 33 μL/min to the anesthetized rats for 15 minutes. (R)-2-propyloctanoic acid (hereinafter referred to as compound A) in an amount of 10 mg/mL/kg was administered through tail vein of the rats three times at 6 hours, 24 hours and 48 hours after the infusion of thrombin."}, "[2]": {"tested_on": "dogs", "details": "dog, in vivo, 100 mg/kg", "text": "The toxicity of the astrocyte function-improving agent of the present invention is sufficiently very low and has been confirmed to be safe enough for pharmaceutical use."}, "[3]": {"details": "accumulated score, rats surviving 72 h, average ± standard error"}}}
{"smiles": "CCCCCC[C@@H](CCC)C(=O)O", "note": "[Compound A, (R)-2-propyloctanoic acid]", "values": [{"measurement": "Survival rate after 72 hours", "setting": "[1]; 72 hours after thrombin infusion, 20 rats per group, * p<0.05 vs control (Log-rank test)", "value": 60.0, "unit": "%*^)"}, {"measurement": "No. of surviving rats", "setting": "[1]; 72 hours after thrombin infusion, 20 rats per group, t-PA infused from 40 min for 15 min, compound A 10 mg/mL/kg i.v. at 6, 24, 48 h", "value": 12}, {"measurement": "Neurological symptom score, 0 to 6 hours", "setting": "[1]; [3]", "value": "3.4 ± 0.1"}, {"measurement": "Neurological symptom score, 0 to 24 hours", "setting": "[1]; [3]", "value": "3.3 ± 0.1"}, {"measurement": "Neurological symptom score, 0 to 48 hours", "setting": "[1]; [3]", "value": "3.3 ± 0.1"}, {"measurement": "Neurological symptom score, 0 to 72 hours", "setting": "[1]; [3]", "value": "3.2 ± 0.2"}, {"measurement": "Death after single intravenous administration", "setting": "[2]", "value": "no death was observed"}]}
